In publication PMC9389804 (Journal of Hematology & Oncology, 2022):
“And” between values parts separate entries of the source, which are not always exact repeats. Identical values can stand only once.

Assay: safety assessments (adverse events, NCI CTCAE)
Settings: for Treatment-related cardiovascular events: G 3/4
[1] = AE resulting in dose interruption, Total n=165
[2] = AE resulting in dose reduction, Accelerated phase n=38
[3] = AE resulting in dose reduction, Chronic phase n=127
[4] = AE resulting in dose reduction, Total n=165
[5] = AE resulting in treatment discontinuation, Accelerated phase n=38
[6] = AE resulting in treatment discontinuation, Chronic phase n=127
[7] = AE resulting in treatment discontinuation, Total n=165
[8] = CVE possibly related to olverembatinib, all 165 patients
[9] = CVEs possibly related to olverembatinib

Protocol: Adverse events were assessed continuously and graded according to NCI CTCAE v5.0.18. Complete blood count with differential, serum chemistries, and physical examinations were performed before the study; weekly during Cycles 1 and 2; on alternate weeks in Cycles 3 and 4; and monthly thereafter.

## Cc1ccc(C(=O)Nc2ccc(CN3CCN(C)CC3)c(C(F)(F)F)c2)cc1C#Cc1cnc2[nH]ncc2c1 [olverembatinib]
[1]
  Musculoskeletal pain: 1 (0.6) n (%)
  Myocardial strain: 1 (0.6) n (%)
  Neutropenia: 5 (3.0) n (%)
  Nonhematologic: 48 (29.1) n (%)
  Pain: 1 (0.6) n (%)
  Pain in extremity: 1 (0.6) n (%)
  Pericardial effusion: 1 (0.6) n (%)
  Peripheral swelling: 1 (0.6) n (%)
  Pneumonia: 2 (1.2) n (%)
  Proteinuria: 1 (0.6) n (%)
  Pulmonary arterial hypertension: 1 (0.6) n (%)
  Pulmonary tuberculosis: 1 (0.6) n (%)
  Pyrexia: 3 (1.8) n (%)
  Rash: 1 (0.6) n (%)
  Refraction disorder: 1 (0.6) n (%)
  Sinus bradycardia: 1 (0.6) n (%)
  Sinus tachycardia: 2 (1.2) n (%)
  Skin mass: 1 (0.6) n (%)
  Superior mesenteric artery syndrome: 1 (0.6) n (%)
  Supraventricular extrasystoles: 1 (0.6) n (%)
  Swelling: 1 (0.6) n (%)
  Thrombocytopenia: 59 (35.8) n (%)
  Upper-respiratory-tract infection: 2 (1.2) n (%)
  Urinary sediment present: 1 (0.6) n (%)
[2]
  Acute coronary syndrome: 0 n (%)
  Anemia: 1 (2.6) n (%)
  Arteriosclerosis coronary artery: 0 n (%)
  Arthralgia: 1 (2.6) n (%)
  Asthenia: 0 n (%)
  Atrial fibrillation: 1 (2.6) n (%)
  Cerebral infarction: 0 n (%)
  Chest discomfort: 0 n (%)
  Dyspnea: 0 n (%)
  Electrocardiogram QT prolonged: 0 n (%)
  Glaucoma: 0 n (%)
  Hematologic adverse events: 10 (26.3) n (%)
  Hyperbilirubinaemia: 1 (2.6) n (%)
  Hyperglycaemia: 1 (2.6) n (%)
  Hypertriglyceridaemia: 0 n (%)
  Hypokalemia: 1 (2.6) n (%)
  Increased creatine phosphokinase: 0 n (%)
  Leukopenia: 2 (5.3) n (%)
  Neutropenia: 1 (2.6) n (%)
  Nonhaematologic: 5 (13.2) n (%)
  Proteinuria: 0 n (%)
  Retinal-vein occlusion: 0 n (%)
  Seronegative arthritis: 1 (2.6) n (%)
  Subileus: 0 n (%)
  Thrombocytopenia: 7 (18.4) n (%)
[3]
  Acute coronary syndrome: 1 (0.8) n (%)
  Anemia: 2 (1.6) n (%)
  Arteriosclerosis coronary artery: 1 (0.8) n (%)
  Arthralgia: 0 n (%)
  Asthenia: 1 (0.8) n (%)
  Atrial fibrillation: 0 n (%)
  Cerebral infarction: 1 (0.8) n (%)
  Chest discomfort: 1 (0.8) n (%)
  Dyspnea: 1 (0.8) n (%)
  Electrocardiogram QT prolonged: 1 (0.8) n (%)
  Glaucoma: 1 (0.8) n (%)
  Hematologic adverse events: 20 (15.7) n (%)
  Hyperbilirubinaemia: 1 (0.8) n (%)
  Hyperglycaemia: 1 (0.8) n (%)
  Hypertriglyceridaemia: 1 (0.8) n (%)
  Hypokalemia: 0 n (%)
  Increased creatine phosphokinase: 2 (1.6) n (%)
  Leukopenia: 0 n (%)
  Neutropenia: 2 (1.6) n (%)
  Nonhaematologic: 16 (12.6) n (%)
  Proteinuria: 1 (0.8) n (%)
  Retinal-vein occlusion: 2 (1.6) n (%)
  Seronegative arthritis: 0 n (%)
  Subileus: 1 (0.8) n (%)
  Thrombocytopenia: 19 (15) n (%)
[4]
  Acute coronary syndrome: 1 (0.6) n (%)
  Anemia: 3 (1.8) n (%)
  Arteriosclerosis coronary artery: 1 (0.6) n (%)
  Arthralgia: 1 (0.6) n (%)
  Asthenia: 1 (0.6) n (%)
  Atrial fibrillation: 1 (0.6) n (%)
  Cerebral infarction: 1 (0.6) n (%)
  Chest discomfort: 1 (0.6) n (%)
  Dyspnea: 1 (0.6) n (%)
  Electrocardiogram QT prolonged: 1 (0.6) n (%)
  Glaucoma: 1 (0.6) n (%)
  Hematologic adverse events: 30 (18.2) n (%)
  Hyperbilirubinaemia: 2 (1.2) n (%)
  Hyperglycaemia: 2 (1.2) n (%)
  Hypertriglyceridaemia: 1 (0.6) n (%)
  Hypokalemia: 1 (0.6) n (%)
  Increased creatine phosphokinase: 2 (1.2) n (%)
  Leukopenia: 2 (1.2) n (%)
  Neutropenia: 3 (1.8) n (%)
  Nonhaematologic: 21 (12.7) n (%)
  Proteinuria: 1 (0.6) n (%)
  Retinal-vein occlusion: 2 (1.2) n (%)
  Seronegative arthritis: 1 (0.6) n (%)
  Subileus: 1 (0.6) n (%)
  Thrombocytopenia: 26 (15.8) n (%)
[5]
  Acute myocardial infarction: 0 n (%)
  Breast cancer: 0 n (%)
  Febrile neutropenia: 0 n (%)
  Hematologic: 3 (7.9) n (%)
  Lacunar infarction: 0 n (%)
  Nonhaematologic: 1 (2.6) n (%)
  Pericardial effusion: 1 (2.6) n (%)
  Proteinuria: 0 n (%)
  Retinal-vein occlusion: 0 n (%)
  Thrombocytopenia: 3 (7.9) n (%)
[6]
  Acute myocardial infarction: 1 (0.8) n (%)
  Breast cancer: 1 (0.8) n (%)
  Febrile neutropenia: 1 (0.8) n (%)
  Hematologic: 4 (3.1) n (%)
  Lacunar infarction: 1 (0.8) n (%)
  Nonhaematologic: 5 (3.9) n (%)
  Pericardial effusion: 0 n (%)
  Proteinuria: 1 (0.8) n (%)
  Retinal-vein occlusion: 1 (0.8) n (%)
  Thrombocytopenia: 3 (2.4) n (%)
[7]
  Acute myocardial infarction: 1 (0.6) n (%)
  Breast cancer: 1 (0.6) n (%)
  Febrile neutropenia: 1 (0.6) n (%)
  Hematologic: 7 (4.2) n (%)
  Lacunar infarction: 1 (0.6) n (%)
  Nonhaematologic: 6 (3.6) n (%)
  Pericardial effusion: 1 (0.6) n (%)
  Proteinuria: 1 (0.6) n (%)
  Retinal-vein occlusion: 1 (0.6) n (%)
  Thrombocytopenia: 6 (3.6) n (%)
Accelerated phase n=38
  Adverse events resulting in dose interruption: 28 (73.7%) n (%) and 28 (73.7) n (%)
  Adverse events resulting in dose reduction: 14 (36.8%) n (%) and 14 (36.8) n (%)
  Adverse events resulting in treatment discontinuation: 4 (10.5) n (%)
  Treatment-related cardiovascular events: 4 (10.5) n (%)
[8]
  Atrial fibrillation: 3.0%
  Palpitations: 1.2%
  Pericardial effusion: 8.5%
  Retinal-vein occlusion: 1.8%
  Supraventricular extrasystoles: 3.0%
  Ventricular extrasystoles: 4.2%
  angina pectoris, arrhythmia, atrial tachycardia, cardiomegaly, cerebral ischemia, and/or cerebral infarction: < 1%
[9]
  G3/4 cardiovascular events: 11.5%
  median time on treatment to cardiovascular events (CVEs): 11 months
Chronic phase n=127
  Adverse events resulting in dose interruption: 58 (45.7%) n (%) and 58 (45.7) n (%)
  Adverse events resulting in dose reduction: 36 (28.3%) n (%) and 36 (28.3) n (%)
  Adverse events resulting in treatment discontinuation: 9 (7.1) n (%)
  Treatment-related cardiovascular events: 15 (11.8) n (%)
Total n=165
  Treatment-related cardiovascular events: 19 (11.5) n (%)
